Target: T1, PriA_Blon (Bifidobacterium longum, UniProt Q8G4S5)
T1 sequence (Q8G4S5 1-241): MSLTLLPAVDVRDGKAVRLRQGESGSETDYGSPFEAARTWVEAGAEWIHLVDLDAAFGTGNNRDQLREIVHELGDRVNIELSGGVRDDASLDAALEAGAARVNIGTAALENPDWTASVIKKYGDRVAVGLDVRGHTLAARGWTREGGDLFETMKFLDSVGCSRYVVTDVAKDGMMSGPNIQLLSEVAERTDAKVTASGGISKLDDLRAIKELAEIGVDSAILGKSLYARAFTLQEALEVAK
Test: steady-state kinetics, PRA isomerase
Assay type: biochemical
Conditions: read-out: In vitro activity^a / PRA isomerase (TrpF) / K M μM

With O=C(O)c1ccccc1N[C@@H]1O[C@H](COP(=O)(O)O)[C@@H](O)[C@H]1O [PRA, N’-(5′-phosphoribosyl) anthranilate] the Km was 6.1 ± 0.1 µM.
